For series [1], the system named is transplanted tumor of human breast cancer cell MCF-7. The series can be described thus: MCF-7 transplanted tumor in nude mice. The settings on record: MCF-7; 30 mg/kg i.g. 30 days. On the procedure:
(§1) Then cell concentration was adjusted to 1×10^7/ml with matrigel, then each nude mouse was inoculated subcutaneously with 0.2 ml of cells at its right armpit and recorded as the first day of inoculation. When the tumor grows to be greater than or equal to 100 mm^3, the mice were randomly divided into 11 groups with 6 mice in each group: a model group, a cyclophosphamide group, isovaleryl spiramycin I groups with doses of 25, 50 and 100 mg/kg, isovaleryl spiramycin II groups with doses of 25, 50 and 100 mg/kg, and isovaleryl spiramycin III groups with doses of 25, 50 and 100 mg/kg. Each group was continuously administered intragastrically for 30 days with a dose of 20 ml/kg. The mice were sacrificed the next day after drug withdrawal and the indicators were tested. The long diameter and short diameter of the tumor, and the body weight of each mouse were recorded every 3 days from drug administration to nude mouse sacrifice.
(§2) The body weight of the nude mice and the long diameter (a) and short diameter (b) of the transplanted tumor were measured every 3 days, and the tumor volume (v), relative tumor volume (RTV) and relative tumor proliferation rate (T/C) are calculated respectively according to the following formulas, wherein V=a×b^2/2; RTV=V/V0 (V0 is the tumor volume before administration, V is the tumor volume before sacrifice), and T/C (%)=treatment group RTV/model control group RTV×100%.
(§3) Each mouse was weighed and sacrificed. After the tumor was completely stripped off from the body of the mouse, the non-tumor tissues such as blood stains and fat were removed to weigh the tumor and calculate the tumor growth inhibition rate. The average tumor weight of each group of mice is used as an indicator of efficacy. Tumor growth inhibition rate (%)=(1−the average tumor weight of the treatment group/the average tumor weight of the model group)×100%.

Series [2] has as its system transplanted tumor of HL60 cells. The series can be described thus: HL-60 transplanted tumor in nude mice. Particulars: dose 30 mg/kg. On the procedure: as §1, with “HL-60 cells in a logarithmic growth phase were taken and subjected to a trypan blue exclusion experiment showing that the cell viability was more than 95%, then the cells were subjected to trypsinization, centrifugation, and supernatant removal. Then” for “Then”, “group:” for “group: a model group, a cyclophosphamide group,”, “the” for “the body”
as §2, §3

Series [3] relates to transplanted tumor of HT-29 cells. Nature of the series: HT-29 transplanted tumor in nude mice. On the procedure: as §1, with “group:” for “group: a model group, a cyclophosphamide group,”
as §2, §3

In the case of `O=P1(N(CCCl)CCCl)NCCCO1` (stereo not drawn) [Cyclophosphamide, cyclophosphamide, reference compound], in series [1], the “Body Weight (d 1)” value was determined as 22.03 ± 0.70 g, the “Body Weight (d 30)” value is listed as 17.77 ± 0.65 g, the “Inhibition Rate (tumor growth inhibition rate)” value turned out to be 70.18% and the “Relative Tumor Proliferation Rate (T/C)” value amounted to 29.56%. Also, in series [1], the “Relative Tumor Volume (RTV)” value turned out to be 5.17 ± 0.64, the “Tumor Volume (d 1)” value is 103.78 ± 12.65 mm3, the “Tumor Volume (d 30)” value worked out at 532.62 ± 56.27 mm3 and the “Tumor Weight” value was 0.81 ± 0.25*8 g. Besides, in series [2], the “Inhibition Rate (%)” value is on record as 70.30%, the “Relative Tumor Proliferation Rate (T/C)” value was determined as 24.69%, the “Relative Tumor Volume (RTV)” value is 2.78 ± 1.89 and the “Tumor Weight” value is listed as 0.67 ± 0.30 g. In series [2] (d 1), the “Body Weight (g) (d1)” value is reported as 20.65 ± 1.47 g and the “Tumor Volume (mm3) (d 1)” value is 180.63 ± 29.97 mm3. Further, in series [2] (d 30), the “Body Weight (g) (d30)” value worked out at 18.47 ± 0.91 g and the “Tumor Volume (mm3) (d30)” value came out at 466.98 ± 255.88 mm3. In series [3] (HT-29 nude mice, 30 mg/kg), the “Inhibition Rate (%)” value turned out to be 78.87% and the “Tumor Weight” value stood at 0.50 ± 0.25 g. For the same compound, in series [3] (HT-29 nude mice, 30 mg/kg, d1), the “Body Weight (g) (d1)” value amounted to 21.42 ± 1.35 g. Further, the “Body Weight (g) (d30)” value in series [3] (HT-29 nude mice, 30 mg/kg, d30) is 18.69 ± 1.21 g. Further, in series [3] (dose 30 mg/kg), the “Relative Tumor Proliferation Rate (T/C)” value was 19.84% and the “Relative Tumor Volume (RTV)” value is on record as 2.86 ± 1.44. Further, the “Tumor Volume (mm3) (d 1)” value in series [3] (dose 30 mg/kg, d 1) stood at 176.59 ± 36.81 mm3. Besides, the “Tumor Volume (mm3) (d30)” value in series [3] (dose 30 mg/kg, d 30) is reported as 477.12 ± 166.46 mm3.

Source of the values: patent publication US20200163984A1, “USE OF ISOVALERYL SPIRAMYCIN I, II AND/OR III IN MANUFACTURING MEDICAMENT FOR TREATING AND/OR PREVENTING TUMOR, AND MEDICAMENT” (SHENYANG FUYANG PHARMACEUTICAL TECHNOLOGY CO., LTD., priority 2017, published 2020).
